Activity calls are given as the source filed them.
Legend:
[1] = target: T1, Sentrin-specific protease 6 (Homo sapiens, UniProt Q9GZR1); format: functional;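 further: Luminescence-based dose-response confirmatory assay of SENP6 inhibition, following up an ultra-high-throughput screen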
T1 sequence (Q9GZR1 whole entry): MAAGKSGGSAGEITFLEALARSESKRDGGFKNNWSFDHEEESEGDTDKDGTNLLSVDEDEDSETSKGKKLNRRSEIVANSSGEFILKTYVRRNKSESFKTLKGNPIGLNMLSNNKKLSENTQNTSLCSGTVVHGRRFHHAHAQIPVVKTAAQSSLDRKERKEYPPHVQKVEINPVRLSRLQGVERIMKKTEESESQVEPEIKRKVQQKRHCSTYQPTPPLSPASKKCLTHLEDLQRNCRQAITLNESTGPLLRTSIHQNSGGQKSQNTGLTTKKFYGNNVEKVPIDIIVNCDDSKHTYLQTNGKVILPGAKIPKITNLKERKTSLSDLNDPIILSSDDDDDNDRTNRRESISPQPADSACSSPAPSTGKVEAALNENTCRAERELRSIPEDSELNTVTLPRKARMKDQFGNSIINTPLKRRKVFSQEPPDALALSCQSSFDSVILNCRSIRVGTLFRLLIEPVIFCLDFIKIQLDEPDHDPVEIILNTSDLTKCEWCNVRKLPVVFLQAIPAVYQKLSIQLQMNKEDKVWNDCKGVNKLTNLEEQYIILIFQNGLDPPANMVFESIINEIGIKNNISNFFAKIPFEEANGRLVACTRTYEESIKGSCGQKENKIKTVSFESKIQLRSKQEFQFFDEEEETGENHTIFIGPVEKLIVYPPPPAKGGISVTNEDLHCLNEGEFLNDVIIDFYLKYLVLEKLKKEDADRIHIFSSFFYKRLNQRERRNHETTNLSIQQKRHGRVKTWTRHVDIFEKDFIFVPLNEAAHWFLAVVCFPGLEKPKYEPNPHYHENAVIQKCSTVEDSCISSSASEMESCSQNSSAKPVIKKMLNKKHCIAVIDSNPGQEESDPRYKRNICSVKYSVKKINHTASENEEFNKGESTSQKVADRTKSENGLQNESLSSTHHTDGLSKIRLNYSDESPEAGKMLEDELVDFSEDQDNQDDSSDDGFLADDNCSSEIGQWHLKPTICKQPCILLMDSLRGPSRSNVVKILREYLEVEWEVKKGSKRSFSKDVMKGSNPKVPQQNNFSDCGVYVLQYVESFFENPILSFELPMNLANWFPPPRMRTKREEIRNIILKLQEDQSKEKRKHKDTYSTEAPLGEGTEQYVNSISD

[2] = target: T2, Sentrin-specific protease 8 (Homo sapiens, UniProt Q96LD8); format: functional;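 further: luminescence read-out of SENP8 inhibition, dose-response confirmation following an ultra-high-throughput screen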
T2 sequence (Q96LD8 whole entry): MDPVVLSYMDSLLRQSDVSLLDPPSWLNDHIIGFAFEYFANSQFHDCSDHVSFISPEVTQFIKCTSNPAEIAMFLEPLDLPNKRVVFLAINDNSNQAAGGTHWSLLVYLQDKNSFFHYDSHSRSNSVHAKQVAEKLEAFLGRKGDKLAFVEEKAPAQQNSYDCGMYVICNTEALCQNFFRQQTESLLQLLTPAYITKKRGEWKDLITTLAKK

Caspase-3 = target: T3, Caspase-3 (Homo sapiens, UniProt P42574); format: functional;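 further: Dose-response selectivity test against caspase-3 for candidate inhibitors of sentrin-specific proteases (SENPs)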
T3 sequence (P42574 whole entry): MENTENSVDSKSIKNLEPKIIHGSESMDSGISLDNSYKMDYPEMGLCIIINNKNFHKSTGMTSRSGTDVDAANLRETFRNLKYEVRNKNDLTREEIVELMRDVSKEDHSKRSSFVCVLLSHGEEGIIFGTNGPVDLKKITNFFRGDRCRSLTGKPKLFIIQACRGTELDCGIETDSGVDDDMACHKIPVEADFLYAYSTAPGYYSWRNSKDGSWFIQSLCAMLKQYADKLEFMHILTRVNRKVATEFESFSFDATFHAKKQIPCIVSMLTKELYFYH

[3] = cytotoxicity in HEK-293T cells, dose response, cytotoxicity control for BCR NF-kB inhibitor project, luminescence, B-cell screen hits (AID 489021); format: functional, cell-based;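 further: HEK-293T cells carrying an NF-kB luciferase reporter; cells exposed to compound for about 14 hours before viability readout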
Bcl-2-like protein 10 = target: T4, Bcl-2-like protein 10 (Homo sapiens, UniProt Q9HD36); assay: displacers of TR3 peptide from Bcl-B, primary screen, selectivity assay for Bfl-1 inhibitor project, biochemical, fluorescence polarization, FITC-TR3 peptide (AID 748);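 further: fluorescence polarization from a fluorescein-labelled TR3 peptide binding purified Bcl-B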
T4 sequence (Q9HD36 whole entry): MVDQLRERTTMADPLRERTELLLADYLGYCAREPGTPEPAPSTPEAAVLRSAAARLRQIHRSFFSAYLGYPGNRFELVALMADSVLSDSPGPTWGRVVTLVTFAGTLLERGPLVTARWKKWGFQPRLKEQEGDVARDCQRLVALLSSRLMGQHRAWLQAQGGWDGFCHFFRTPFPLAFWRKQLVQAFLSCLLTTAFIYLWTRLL

Protein skinhead-1 = target: T5, Protein skinhead-1 (Caenorhabditis elegans, UniProt P34707); format: functional
T5 sequence (P34707 whole entry): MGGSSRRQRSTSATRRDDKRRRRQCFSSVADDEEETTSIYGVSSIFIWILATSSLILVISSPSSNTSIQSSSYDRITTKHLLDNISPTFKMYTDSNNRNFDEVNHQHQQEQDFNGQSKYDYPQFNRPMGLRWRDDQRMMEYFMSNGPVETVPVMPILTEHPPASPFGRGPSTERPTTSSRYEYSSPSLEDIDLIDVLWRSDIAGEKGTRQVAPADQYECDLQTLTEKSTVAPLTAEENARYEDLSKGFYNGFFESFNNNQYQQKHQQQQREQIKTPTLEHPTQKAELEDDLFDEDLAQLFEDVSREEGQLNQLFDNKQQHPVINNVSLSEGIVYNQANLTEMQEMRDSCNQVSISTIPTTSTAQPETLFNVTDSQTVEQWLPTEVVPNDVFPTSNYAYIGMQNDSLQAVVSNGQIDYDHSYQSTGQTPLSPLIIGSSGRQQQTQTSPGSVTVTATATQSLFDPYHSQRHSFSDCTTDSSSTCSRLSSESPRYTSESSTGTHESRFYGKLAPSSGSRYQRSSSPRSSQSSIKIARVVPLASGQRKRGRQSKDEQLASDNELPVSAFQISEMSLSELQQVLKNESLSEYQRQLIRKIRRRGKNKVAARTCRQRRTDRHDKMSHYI

[4] = target: Matrix metalloproteinase-14 (Homo sapiens, UniProt P50281); assay: Dose Response confirmation of uHTS hits for a small molecule inhibitors of MT1-MMP activation in a fluorescence assay set 1.; format: functional
Nonstructural protein 1 = Nonstructural protein 1 (Influenza A virus, UniProt Q194T2); format: functional, Influenza A virus (A/California/07/2009(H1N1))
Chain of Nonstructural protein 1 (Q194T2 whole entry): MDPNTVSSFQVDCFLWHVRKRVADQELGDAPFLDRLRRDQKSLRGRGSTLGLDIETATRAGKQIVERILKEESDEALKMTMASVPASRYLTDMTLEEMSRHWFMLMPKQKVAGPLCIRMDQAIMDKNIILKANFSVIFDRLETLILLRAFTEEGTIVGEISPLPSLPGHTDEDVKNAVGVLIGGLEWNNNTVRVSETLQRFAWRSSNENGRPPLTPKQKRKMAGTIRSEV

Structure (SMILES)	IC50 [1]	IC50 [2]	IC50 (Caspase-3)	IC50 [3]	IC50 (Bcl-2-like protein 10)	IC50 (Protein skinhead-1)	IC50 [4]	IC50 (Nonstructural protein 1)
CCC(=O)N(C1=C(NC)C(=O)c2ccccc2C1=O)C(C)C	16.7 µM (active)	25 µM (active)	6.86 µM (active)	> 80 µM (inactive)	–	–	–	–
CC1CC(C)CN(C(=O)c2ccc3c(c2NCCO)C(=O)c2ccccc2C3=O)C1 (stereo not drawn)	–	–	–	–	29.1 µM (active)	> 100 µM (inactive)	69 µM (inactive)	13 µM (active)
